Data from patent US10266537B2, “3-acetylenyl-pyrazole-pyrimidine derivative, and preparation method therefor and uses thereof” (Si Chuan University, priority 2015, dated 2019).
Where two headings read alike, the source gives them in different places.

What was measured:
Tec(h) activated = Tec(h) activated (Homo sapiens (Human), UniProt P42680); test: Kinase inhibition assay (KinaseProfiler, 33P-ATP); format: biochemical; conditions: compound at 10 μM, read-out: The percentage of the remaining active protein
Miapaca-2 = test: Cell proliferation inhibition assay (MTT); format: cell-based; conditions: Homo sapiens, MIA PaCa-2, 72 h, read-out: Proliferation inhibitory activity IC50
Protocol: The cells were seeded in 96-well plates with 200 μL of cell suspension per well and incubated overnight in a cell culture medium with a cell concentration of 1 2×10^4 cells/mL. The next day, the supernatant was discarded (the suspension cell was centrifuged before it) and the cells were treated with gradient concentrations of the test compound, respectively. […] After 72 hours, add 20 μL of MTT reagent at a concentration of 5 mg/mL per well. After incubation for 2-4 h, the supernatant was discarded and 150 μL of DMSO was added to each well. […] Relative cell proliferation inhibition rate=([MUT]-[MUT])×100%/[MUT]. The experiment was repeated at least 3 times. Experimental data were expressed as mean, data statistics using t test, P<0.05 for the difference was statistically significant.

EphA8(h) = EphA8(h) (Homo sapiens (Human), UniProt P29322); test: Kinase inhibition assay (KinaseProfiler, 33P-ATP); format: biochemical; conditions: compound at 10 μM, read-out: The percentage of the remaining active protein
MDA-MB-231 = test: Cell proliferation inhibition assay (MTT); format: cell-based, human
Protocol: (§1) The remaining cell lines were cultured in DMEM complete medium containing 10% fetal bovine serum (MV4-11 cells 20%), 100 U/ml penicillin, 100 μg/mL streptomycin at 5% CO2, and 37° C.
(§2) The cells were seeded in 96-well plates with 200 μL of cell suspension per well and incubated overnight in a cell culture medium with a cell concentration of 1˜2×10^4 cells/mL. The next day, the supernatant was discarded (the suspension cell was centrifuged before it) and the cells were treated with gradient concentrations of the test compound, respectively. At the same time, the drug-free negative control group and the equal volume of solvent control group, DMSO concentration of 0.1%, each dose group set up three wells, 37° C., 5% CO2 conditions. After 72 hours, add 20 μL of MTT reagent at a concentration of 5 mg/mL per well. After incubation for 2-4 h, the supernatant was discarded and 150 μL of DMSO was added to each well. […] Determine the absorbance (A) value (λ=570 nm, A value is proportional to the number of living cells), whichever is the average. […] The experiment was repeated at least 3 times. Experimental data were expressed as mean, data statistics using t test, P<0.05 for the difference was statistically significant. The inhibitory effects of the following compounds on cell proliferation were expressed as IC50 or inhibition rates.

PKCα(h) = PKCα(h) (Homo sapiens (Human), UniProt P17252); test: Kinase inhibition assay (KinaseProfiler, 33P-ATP); format: biochemical; conditions: compound at 10 μM, read-out: The percentage of the remaining active protein
JNK1α1(h) = JNK1α1(h) (Homo sapiens (Human), UniProt P45983); test: Kinase inhibition assay (KinaseProfiler, 33P-ATP); format: biochemical; conditions: compound at 10 μM, read-out: The percentage of the remaining active protein
Itk(h) = Itk(h) (Homo sapiens (Human), UniProt Q08881); test: Kinase inhibition assay (KinaseProfiler, 33P-ATP); format: biochemical; conditions: compound at 10 μM, read-out: The percentage of the remaining active protein
IKKβ = IKKβ (Homo sapiens (Human), UniProt O14920); test: Kinase inhibition assay (KinaseProfiler, 33P-ATP); format: biochemical; conditions: IKKβ; ATP at Km
DDR2 = DDR2 (Homo sapiens (Human), UniProt Q16832); test: Kinase inhibition assay (KinaseProfiler, 33P-ATP); format: biochemical; conditions: DDR2; ATP at Km
RIPK2(h) = RIPK2(h) (Homo sapiens (Human), UniProt O43353); test: Kinase inhibition assay (KinaseProfiler, 33P-ATP); format: biochemical; conditions: compound at 10 μM, read-out: The percentage of the remaining active protein
Fyn = Fyn (Homo sapiens (Human), UniProt P06241); test: Kinase inhibition assay (KinaseProfiler, 33P-ATP); format: biochemical
ALK(h) = ALK(h) (Homo sapiens (Human), UniProt Q9UM73); test: Kinase inhibition assay (KinaseProfiler, 33P-ATP); format: biochemical; conditions: compound at 10 μM, read-out: The percentage of the remaining active protein
PAK1(h) = PAK1(h) (Homo sapiens (Human), UniProt Q13153); test: Kinase inhibition assay (KinaseProfiler, 33P-ATP); format: biochemical; conditions: compound at 10 μM, read-out: The percentage of the remaining active protein
Met(h) = Met(h) (Homo sapiens (Human), UniProt P08581); test: Kinase inhibition assay (KinaseProfiler, 33P-ATP); format: biochemical; conditions: compound at 10 μM, read-out: The percentage of the remaining active protein
[1] = system: breast cancer cell line MDA-MB-231; format: in vivo; conditions: mouse, in vivo
Protocol: When the tumors grew to volumes of 200 mm^3, all the mice were randomized into groups (6 mice for each group) and dosed with indicated compounds.
Observation indexes: mouse body weight and the tumor size were measured once every three days, the tumor volume is calculated (length×width^2×0.5).

EGFR = EGFR (Homo sapiens (Human), UniProt P00533); test: Kinase inhibition assay (KinaseProfiler, 33P-ATP); format: biochemical
EphB4 = EphB4 (Homo sapiens (Human), UniProt P54760); test: Kinase inhibition assay (KinaseProfiler, 33P-ATP); format: biochemical; conditions: EphB4; ATP at Km
PKBβ(h) = PKBβ(h) (Homo sapiens (Human), UniProt P31751); test: Kinase inhibition assay (KinaseProfiler, 33P-ATP); format: biochemical; conditions: compound at 10 μM, read-out: The percentage of the remaining active protein
IKKα = IKKα (Homo sapiens (Human), UniProt O15111); test: Kinase inhibition assay (KinaseProfiler, 33P-ATP); format: biochemical
ErbB2 = ErbB2 (Homo sapiens (Human), UniProt P04626); test: Kinase inhibition assay (KinaseProfiler, 33P-ATP); format: biochemical; conditions: ErbB2(h); compound at 10 μM; read-out: The percentage of the remaining active protein
c-RAF = c-RAF (Homo sapiens (Human), UniProt P04049); test: Kinase inhibition assay (KinaseProfiler, 33P-ATP); format: biochemical; conditions: c-RAF(h); compound at 10 μM; read-out: The percentage of the remaining active protein
GSK3β(h) = GSK3β(h) (Homo sapiens (Human), UniProt P49841); test: Kinase inhibition assay (KinaseProfiler, 33P-ATP); format: biochemical; conditions: compound at 10 μM, read-out: The percentage of the remaining active protein
FAK(h) = FAK(h) (Homo sapiens (Human), UniProt Q05397); test: Kinase inhibition assay (KinaseProfiler, 33P-ATP); format: biochemical; conditions: compound at 10 μM, read-out: The percentage of the remaining active protein
Pim-1(h) = Pim-1(h) (Homo sapiens (Human), UniProt P11309); test: Kinase inhibition assay (KinaseProfiler, 33P-ATP); format: biochemical; conditions: compound at 10 μM, read-out: The percentage of the remaining active protein
Bmx = Bmx (Homo sapiens (Human), UniProt P51813); test: Kinase inhibition assay (KinaseProfiler, 33P-ATP)
TBK1(h) = TBK1(h) (Homo sapiens (Human), UniProt Q9UHD2); test: Kinase inhibition assay (KinaseProfiler, 33P-ATP); format: biochemical; conditions: compound at 10 μM, read-out: The percentage of the remaining active protein
PI3 Kinase a(h) = PI3 Kinase a(h) (Homo sapiens (Human), UniProt P42336); test: Kinase inhibition assay (KinaseProfiler, 33P-ATP); format: biochemical; conditions: PI3 Kinase a(h); compound at 10 μM; read-out: The percentage of the remaining active protein
Yes = Yes (Homo sapiens (Human), UniProt P07947); test: Kinase inhibition assay (KinaseProfiler, 33P-ATP); format: biochemical
MDA-MB-435 = test: Cell proliferation inhibition assay (MTT); format: cell-based, human
Protocol: as §1, §2

ARK5(h) = ARK5(h) (Homo sapiens (Human), UniProt O60285); test: Kinase inhibition assay (KinaseProfiler, 33P-ATP); format: biochemical; conditions: compound at 10 μM, read-out: The percentage of the remaining active protein
EphA2 = EphA2 (Homo sapiens (Human), UniProt P29317); test: Kinase inhibition assay (KinaseProfiler, 33P-ATP); conditions: EphA2; ATP at Km
CHK1(h) = CHK1(h) (Homo sapiens (Human), UniProt O14757); test: Kinase inhibition assay (KinaseProfiler, 33P-ATP); format: biochemical; conditions: compound at 10 μM, read-out: The percentage of the remaining active protein

Fyn, sequence (P06241 whole entry): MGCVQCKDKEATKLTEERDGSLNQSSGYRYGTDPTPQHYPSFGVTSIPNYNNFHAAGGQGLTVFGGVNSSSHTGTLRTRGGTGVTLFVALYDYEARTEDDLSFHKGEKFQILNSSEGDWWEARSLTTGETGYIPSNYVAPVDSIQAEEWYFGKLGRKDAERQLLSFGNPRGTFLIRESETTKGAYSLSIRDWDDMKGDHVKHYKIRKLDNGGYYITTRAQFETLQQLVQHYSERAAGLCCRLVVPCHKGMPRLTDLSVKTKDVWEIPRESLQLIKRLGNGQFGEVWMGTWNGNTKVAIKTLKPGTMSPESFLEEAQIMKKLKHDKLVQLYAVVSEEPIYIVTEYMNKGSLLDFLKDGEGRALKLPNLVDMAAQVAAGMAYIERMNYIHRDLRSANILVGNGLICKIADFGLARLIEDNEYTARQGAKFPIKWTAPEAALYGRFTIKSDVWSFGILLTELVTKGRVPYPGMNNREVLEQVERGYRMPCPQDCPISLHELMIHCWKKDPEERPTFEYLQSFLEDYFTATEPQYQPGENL
Bmx, sequence (P51813 whole entry): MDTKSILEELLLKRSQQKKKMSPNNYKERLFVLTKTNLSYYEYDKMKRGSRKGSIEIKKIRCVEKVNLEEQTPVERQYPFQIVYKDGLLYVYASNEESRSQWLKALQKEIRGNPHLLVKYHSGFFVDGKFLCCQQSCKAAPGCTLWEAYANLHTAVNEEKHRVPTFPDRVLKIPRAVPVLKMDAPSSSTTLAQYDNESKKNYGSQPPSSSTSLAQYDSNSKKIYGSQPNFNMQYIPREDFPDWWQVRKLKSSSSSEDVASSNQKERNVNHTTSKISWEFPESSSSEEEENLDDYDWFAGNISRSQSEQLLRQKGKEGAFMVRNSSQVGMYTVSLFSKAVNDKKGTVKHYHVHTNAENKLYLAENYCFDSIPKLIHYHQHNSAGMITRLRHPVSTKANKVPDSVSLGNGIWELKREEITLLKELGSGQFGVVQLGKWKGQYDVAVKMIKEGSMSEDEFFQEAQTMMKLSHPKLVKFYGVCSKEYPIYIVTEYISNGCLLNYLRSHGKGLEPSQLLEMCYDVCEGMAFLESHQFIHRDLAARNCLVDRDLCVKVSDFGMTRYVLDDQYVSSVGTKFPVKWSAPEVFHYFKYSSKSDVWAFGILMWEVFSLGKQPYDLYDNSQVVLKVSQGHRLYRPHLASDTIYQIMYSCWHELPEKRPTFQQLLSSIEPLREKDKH
EGFR, sequence (P00533 25-1210): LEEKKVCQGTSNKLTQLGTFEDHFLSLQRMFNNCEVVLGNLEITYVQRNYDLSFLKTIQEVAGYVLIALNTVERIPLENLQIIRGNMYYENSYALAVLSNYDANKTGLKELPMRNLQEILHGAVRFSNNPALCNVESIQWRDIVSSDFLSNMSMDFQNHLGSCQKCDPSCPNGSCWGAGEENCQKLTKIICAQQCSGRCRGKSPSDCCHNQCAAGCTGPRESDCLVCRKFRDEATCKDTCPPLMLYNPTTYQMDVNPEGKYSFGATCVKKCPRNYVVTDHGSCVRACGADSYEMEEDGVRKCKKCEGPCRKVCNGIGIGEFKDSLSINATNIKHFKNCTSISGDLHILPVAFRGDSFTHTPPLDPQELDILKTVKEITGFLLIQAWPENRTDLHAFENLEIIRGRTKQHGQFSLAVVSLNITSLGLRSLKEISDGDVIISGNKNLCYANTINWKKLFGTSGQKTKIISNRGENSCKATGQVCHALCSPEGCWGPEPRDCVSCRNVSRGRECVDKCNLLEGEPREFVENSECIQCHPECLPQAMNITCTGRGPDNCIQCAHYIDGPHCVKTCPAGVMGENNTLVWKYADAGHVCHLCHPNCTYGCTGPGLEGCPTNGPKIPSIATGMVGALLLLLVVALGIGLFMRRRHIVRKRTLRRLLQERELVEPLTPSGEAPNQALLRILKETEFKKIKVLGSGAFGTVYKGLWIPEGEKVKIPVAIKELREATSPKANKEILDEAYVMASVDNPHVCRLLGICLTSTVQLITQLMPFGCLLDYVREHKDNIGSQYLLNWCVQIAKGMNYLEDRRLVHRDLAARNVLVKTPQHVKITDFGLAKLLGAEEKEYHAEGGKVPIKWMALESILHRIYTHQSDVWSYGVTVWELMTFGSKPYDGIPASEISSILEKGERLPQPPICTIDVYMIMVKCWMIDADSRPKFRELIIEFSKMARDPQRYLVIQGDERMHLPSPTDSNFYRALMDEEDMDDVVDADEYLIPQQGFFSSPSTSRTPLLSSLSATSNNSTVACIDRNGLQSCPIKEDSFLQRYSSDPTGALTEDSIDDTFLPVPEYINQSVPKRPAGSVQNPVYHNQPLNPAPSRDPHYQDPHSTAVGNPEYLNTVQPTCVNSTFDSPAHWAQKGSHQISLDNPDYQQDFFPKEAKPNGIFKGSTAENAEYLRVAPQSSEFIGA
IKKα, sequence (O15111 whole entry): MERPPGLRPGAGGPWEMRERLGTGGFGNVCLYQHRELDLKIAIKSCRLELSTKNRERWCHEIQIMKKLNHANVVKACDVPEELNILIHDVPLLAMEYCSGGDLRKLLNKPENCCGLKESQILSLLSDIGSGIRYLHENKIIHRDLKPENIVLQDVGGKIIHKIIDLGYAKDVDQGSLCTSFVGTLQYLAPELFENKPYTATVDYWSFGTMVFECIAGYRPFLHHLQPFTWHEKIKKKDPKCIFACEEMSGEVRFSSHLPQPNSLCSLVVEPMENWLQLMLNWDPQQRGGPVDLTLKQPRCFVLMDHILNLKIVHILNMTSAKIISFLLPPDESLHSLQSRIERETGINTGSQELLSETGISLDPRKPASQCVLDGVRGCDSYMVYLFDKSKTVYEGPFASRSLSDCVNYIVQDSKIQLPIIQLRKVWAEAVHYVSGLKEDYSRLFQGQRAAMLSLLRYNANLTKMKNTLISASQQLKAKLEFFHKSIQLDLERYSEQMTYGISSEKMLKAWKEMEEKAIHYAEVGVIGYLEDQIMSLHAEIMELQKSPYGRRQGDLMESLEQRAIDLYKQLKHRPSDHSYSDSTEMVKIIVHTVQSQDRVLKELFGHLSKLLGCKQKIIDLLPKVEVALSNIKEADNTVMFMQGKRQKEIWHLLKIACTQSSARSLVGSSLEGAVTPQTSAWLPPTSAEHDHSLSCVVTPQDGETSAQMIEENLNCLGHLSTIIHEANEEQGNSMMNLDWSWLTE
Yes, sequence (P07947 whole entry): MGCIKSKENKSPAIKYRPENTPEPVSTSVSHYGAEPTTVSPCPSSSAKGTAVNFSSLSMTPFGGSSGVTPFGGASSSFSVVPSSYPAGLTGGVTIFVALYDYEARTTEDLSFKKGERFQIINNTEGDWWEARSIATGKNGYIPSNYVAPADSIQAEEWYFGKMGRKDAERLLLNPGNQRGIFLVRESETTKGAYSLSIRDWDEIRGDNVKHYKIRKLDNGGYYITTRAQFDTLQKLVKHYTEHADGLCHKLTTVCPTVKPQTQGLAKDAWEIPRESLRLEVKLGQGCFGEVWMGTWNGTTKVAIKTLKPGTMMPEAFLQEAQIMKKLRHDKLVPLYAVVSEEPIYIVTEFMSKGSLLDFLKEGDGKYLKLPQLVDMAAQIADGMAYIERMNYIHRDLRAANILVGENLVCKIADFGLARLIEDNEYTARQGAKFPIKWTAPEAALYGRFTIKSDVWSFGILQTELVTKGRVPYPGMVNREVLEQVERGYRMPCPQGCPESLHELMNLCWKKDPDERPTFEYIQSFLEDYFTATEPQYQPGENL
Tec(h) activated, sequence (P42680 whole entry): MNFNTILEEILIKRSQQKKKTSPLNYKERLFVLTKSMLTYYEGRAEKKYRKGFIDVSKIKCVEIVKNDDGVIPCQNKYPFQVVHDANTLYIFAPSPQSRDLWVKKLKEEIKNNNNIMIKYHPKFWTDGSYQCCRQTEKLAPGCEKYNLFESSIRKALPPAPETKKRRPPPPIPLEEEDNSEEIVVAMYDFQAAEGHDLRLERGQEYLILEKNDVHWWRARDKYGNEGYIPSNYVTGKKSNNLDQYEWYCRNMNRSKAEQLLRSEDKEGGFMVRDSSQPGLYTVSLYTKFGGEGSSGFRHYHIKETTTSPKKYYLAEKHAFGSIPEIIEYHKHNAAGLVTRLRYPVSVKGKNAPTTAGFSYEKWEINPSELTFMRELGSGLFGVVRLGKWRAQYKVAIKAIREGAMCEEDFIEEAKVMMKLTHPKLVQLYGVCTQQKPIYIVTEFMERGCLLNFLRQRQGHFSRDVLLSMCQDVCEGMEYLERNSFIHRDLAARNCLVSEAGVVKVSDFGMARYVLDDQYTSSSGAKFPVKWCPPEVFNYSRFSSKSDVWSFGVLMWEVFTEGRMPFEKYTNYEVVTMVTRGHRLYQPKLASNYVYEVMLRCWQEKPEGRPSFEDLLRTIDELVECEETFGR
ARK5(h), sequence (O60285 whole entry): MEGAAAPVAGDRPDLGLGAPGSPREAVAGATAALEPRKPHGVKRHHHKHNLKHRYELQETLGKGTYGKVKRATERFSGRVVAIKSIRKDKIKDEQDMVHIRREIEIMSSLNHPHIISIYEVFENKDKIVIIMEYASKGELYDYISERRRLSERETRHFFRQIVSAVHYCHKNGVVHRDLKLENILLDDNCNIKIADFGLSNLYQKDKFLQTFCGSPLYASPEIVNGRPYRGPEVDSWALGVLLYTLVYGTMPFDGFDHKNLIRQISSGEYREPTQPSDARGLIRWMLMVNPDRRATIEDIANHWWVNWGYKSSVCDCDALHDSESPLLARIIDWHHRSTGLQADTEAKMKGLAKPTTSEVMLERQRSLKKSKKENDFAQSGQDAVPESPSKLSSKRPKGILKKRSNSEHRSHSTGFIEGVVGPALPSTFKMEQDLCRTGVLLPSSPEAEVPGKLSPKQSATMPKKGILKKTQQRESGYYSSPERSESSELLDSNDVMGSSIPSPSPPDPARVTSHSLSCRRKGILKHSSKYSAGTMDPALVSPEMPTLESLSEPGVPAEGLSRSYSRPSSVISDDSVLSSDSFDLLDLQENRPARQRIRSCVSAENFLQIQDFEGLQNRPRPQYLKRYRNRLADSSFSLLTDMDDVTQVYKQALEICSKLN

With CCn1nc(C#Cc2cc(C(=O)Nc3ccc(CN4CCN(C)CC4)c(C(F)(F)F)c3)ccc2C)c2c(N)ncnc21 [Compound 3] the remaining activity at 10 µM (Tec(h) activated) was 4%, the IC50 (Miapaca-2) was 12.8 nM and the remaining activity at 10 µM (EphA8(h)) was -5%. It also gave an IC50 (MDA-MB-231; Homo sapiens, MDA-MB-231, 72 h, read-out: Proliferation inhibitory activity IC50) of 11.3 nM, an IC50 (MDA-MB-231; read-out: Proliferative inhibitory activity MDA-MB-231 (IC50 class)) of under 100 nM and a remaining activity at 10 µM (PKCα(h)) of 101%. It also gave a remaining activity at 10 µM (JNK1α1(h)) of 66%, a remaining activity at 10 µM (Itk(h)) of 5% and an IC50 (IKKβ) of 164 nM. It also gave an IC50 (DDR2) of 128 nM, a remaining activity at 10 µM (RIPK2(h)) of 3% and a remaining activity at 10 µM (Fyn; Fyn(h), compound at 10 μM, read-out: The percentage of the remaining active protein) of 0%. It also gave an IC50 (Fyn; Fyn, ATP at Km) of 5 nM, a remaining activity at 10 µM (ALK(h)) of 27% and a remaining activity at 10 µM (PAK1(h)) of 57%. For the same compound, the remaining activity at 10 µM (Met(h)) was 24%, the “inhibitory effect compared to positive control” value [1] was “better than the positive control (paclitaxel)” and the tumor growth inhibition [1] was “significantly inhibited”. It also gave a remaining activity at 10 µM (EGFR; EGFR(h), compound at 10 μM, read-out: The percentage of the remaining active protein) of 30%, an IC50 (EGFR; EGFR, ATP at Km) of 3.52 µM and an IC50 (EphB4) of 23 nM. The remaining activity at 10 µM (PKBβ(h)) was 52%, the remaining activity at 10 µM (IKKα; IKKα(h), compound at 10 μM, read-out: The percentage of the remaining active protein) was 2% and the IC50 (IKKα; IKKα, ATP at Km) was 353 nM. The remaining activity at 10 µM (ErbB2) was 3%, the remaining activity at 10 µM (c-RAF) was 5% and the remaining activity at 10 µM (GSK3β(h)) was 130%. For the same compound, the remaining activity at 10 µM (FAK(h)) was 43%, the remaining activity at 10 µM (Pim-1(h)) was 46% and the IC50 (Bmx) was 6 nM. It also gave a remaining activity at 10 µM (Bmx; read-out: The percentage of the remaining active protein) of 0%, a remaining activity at 10 µM (TBK1(h)) of 75% and a remaining activity at 10 µM (PI3 Kinase a(h)) of 93%. It also gave a remaining activity at 10 µM (Yes; Yes(h), compound at 10 μM, read-out: The percentage of the remaining active protein) of 0%, an IC50 (Yes; Yes, ATP at Km) of under 1 nM and an IC50 (MDA-MB-435; Homo sapiens, MDA-MB-435, 72 h, read-out: Proliferation inhibitory activity IC50) of 8.65 nM. For the same compound, the IC50 (MDA-MB-435; read-out: Proliferative inhibitory activity MDA-MB-435 (IC50 class)) was under 100 nM, the remaining activity at 10 µM (ARK5(h)) was 105% and the IC50 (EphA2) was 16 nM. The remaining activity at 10 µM (CHK1(h)) was 91%.
